Experimental data published in patent US12673945B2, “3-((8-((1H-pyrazol-4-yl)amino)imidazo[1,2-a]pyridin-3-yl)ethinyl)-n-phenylbenzamide derivative, method for preparing same, and pharmaceutical composition containing same as active ingredient for prevention or treatment of cancer” (DAEGU-GYEONGBUK MEDICAL INNOVATION FOUNDATION, priority 2020, dated 2026).
Values belong to the compound of their own block, whether it stands above or below them.

Legend:
[1] = oral pharmacokinetic test; type: in vivo, ICR mice; details: ICR, mouse, plasma, 10 mg/kg, 10 mg/Kg PO, vehicle A (NMP:PEG400=5:95)
Method: (§1) To evaluate the pharmacokinetic properties in vivo, oral pharmacokinetic test was performed with the compounds of Comparative Examples 1 and 4 and Examples 1 and 4 using mice and rats, and the PK parameters are shown in Table 10.
(§2) ICR mice (6-7 weeks old) and SD rats (6-7 weeks old) were used for the test. The fasted group was fasted about 16 hours before oral administration, and the fed group was fasted about 4 hours before oral administration. The test drug for oral administration was used by dissolving the drug in a vehicle at a concentration of 1 mg/mL for use, and blood samples were collected (time point: 0.25, 0.5, 1, 2, 4, 8, 12, 24, 32, n=3) from the heart (mouse, 500 μL/time point) or jugular vein (rat, 120 μL/time point). Blood was centrifuged at 12,000 G at 4° C. for 2 minutes to separate plasma, and stored at −80° C. until analysis. • Vehicle A (NMP:PEG400=5:95) • Vehicle B (0.5% methyl cellulose) 6-2. Sampling and Pretreatment
(§3) To 20 μl of plasma, 180 μl of acetonitrile (including internal standard) was added. The mixture was vortexed and centrifuged for 5 minutes at 15,000 rpm at 4° C. The supernatant obtained after centrifugation was analyzed by LC-MS/MS.
(§4) PK parameters were calculated with a non-compartmental analysis model using Phoenix WinNonlin 6.4 version (Pharsight, USA) program.

[2] = oral pharmacokinetic test; type: in vivo, SD rats; details: SD, plasma; rat, 10 mg/Kg PO, vehicle A (NMP:PEG400=5:95)
Method: as §1, §2, §3, §4

[3] = tested on: Luc_Ba/F3 T315I-Bcr-Abl cell line; test: in vivo pharmacological activity, blood cancer mouse model; design: species or system nude mice; details: 25 mg/kg oral once a day for 10 days; vehicle group: day 21
Method: (§5) After the mice were adapted to an animal facility for 1 week, the Luc_Ba/F3 T315I-Bcr-Abl cell line emitting luciferase was transplanted into the caudal vein at the density of 5×10^6/animal. Group separation was performed 3 days after the cell line transplantation. On the day of the group separation, 10 mice were randomly assigned to each group of 5 groups so that the luminescence values were equal after luminescence measurement using IVIS spectrum-CT optical imaging equipment.
In addition, the body weight and survival rate of each experimental group were monitored.
Statistical analysis was performed using GraphPad Prism 8, and the statistical significance of the survival rate was confirmed using unpaired t test and log-rank (Mantel-Cox) test.

[4] = body weight in blood cancer mouse model; type: in vivo, nude mice; details: 25 mg/kg oral once a day for 10 days
Method: as §5, with “A total of 50 male 5-week-old nude mice (14-17 g) were obtained from Orient Bio Inc. (322, Galmachi-ro, Jungwon-gu, Seongnam-si, Gyeonggi-do, Korea). After” for “After”
5 groups: control (vehicle, 0.5% methylcellulose solution), ponatinib (25 mg/kg), Example 1 (25 mg/kg), Example 1 (50 mg/kg), Example 1 (100 mg/kg).
After the group separation, the compound of Example 1, ponatinib, and a vehicle were orally administered at intervals of once a day for 10 days in order to evaluate the therapeutic efficacy of the drug. The drug effect was confirmed through optical imaging, and the confirmation was carried out before the drug administration (day 0) and on days 4, 11, 18 and 21 after the administration. In addition, the body weight and survival rate of each experimental group were monitored.

T315I-KOPM28 cells = test: human CML cell proliferation inhibition; type: cell-based; details: 72 hours, Cell Counting Kit-8
Outline: (§6)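 Growth inhibition over 72 h at 37 °C in Bcr-Abl (TCCS, KOPM28) or T315I-Bcr-Abl (T315I-TCCS, T315I-KOPM28) human CML cells, 1×10^4 cells/well. Nine 5-fold dilutions gave final 0 to 10 μM, with DMSO as control. GI50 was derived from CCK-8 A450 as percent of vehicle.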

TCCS cells = test: human CML cell proliferation inhibition; type: cell-based; details: 72 hours, Cell Counting Kit-8
Outline: as §6

T315I-TCCS cells = test: human CML cell proliferation inhibition; type: cell-based; details: 72 hours, Cell Counting Kit-8
Outline: as §6

KOPM28 cells = test: human CML cell proliferation inhibition; type: cell-based; details: 72 hours, Cell Counting Kit-8
Outline: as §6

Parental (Ba/F3) = test: Ba/F3 cell proliferation inhibition; type: cell-based; details: BaF3; 72 hours, Cell Counting Kit-8
Outline: (§7)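 Parental and T315I-Bcr-Abl Ba/F3 cells, 1×10^4 per well, exposed 72 h at 37 °C to nine 3-fold dilutions, final 0 to 10 μM. Viability by CCK-8 after 2 h, absorbance 450 nm; GI50 fitted from percent of vehicle-treated cells.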

T315I-Bcr-Abl (Ba/F3) = test: Ba/F3 cell proliferation inhibition; type: cell-based; details: BaF3; 72 hours, Cell Counting Kit-8
Outline: as §7

AUC(0-t) [1]: 12600 ng·h/mL
Cmax [1]: 3840 ng/mL
half-life [1]: 3.3 h
AUC(0-t) [2]: 2960 ng·h/mL
Cmax [2]: 169 ng/mL
Structure (SMILES): Cc1cn(-c2cc(NC(=O)c3ccc(C)c(C#Cc4cnc5c(Nc6cnn(C)c6)cccn45)c3)cc(C(C)(C)C#N)c2)cn1 [Comparative Example 4, N-(3-(2-cyanopropan-2-yl)-5-(4-methyl-1H-imidazol-1-yl)phenyl)-4-methyl-3-((8-((1-methyl-1H-pyrazol-4-yl)amino)imidazo[1,2-a]pyridin-3-yl)ethynyl)benzamide, reference compound]

AUC(0-t) [1]: 7730 ng·h/mL
Cmax [1]: 810 ng/mL
half-life [1]: 3.5 h
Structure (SMILES): Cc1cn(-c2cc(NC(=O)c3ccc(C)c(C#Cc4cnc5c(Nc6cnn(C)c6)cccn45)c3)cc(C(F)(F)F)c2)cn1 [Comparative Example 1, 4-methyl-N-(3-(4-methyl-1H-imidazol-1-yl)-5-(trifluoromethyl)phenyl)-3-((8-((1-methyl-1H-pyrazol-4-yl)amino)imidazo[1,2-a]pyridin-3-yl)ethynyl)benzamide, reference compound]

Structure (SMILES): Cc1ccc(C(=O)Nc2ccc(CN3CCN(C)CC3)c(C(F)(F)F)c2)cc1C#Cc1cnc2cccnn12 [ponatinib, reference compound]
day after the administration on which all subjects died (FIG. 3) [3]: 35 days
body weight change during the experimental period (FIG. 4) [4]: no significant body weight change

GI50 (T315I-Bcr-Abl (Ba/F3)): 50 to 500 nM
Structure (SMILES): Cc1cc(F)c(C(=O)Nc2cc(CN3CCC(N(C)C)C3)cc(C(C)(C)C#N)c2)cc1C#Cc1cnc2c(Nc3cn[nH]c3)cccn12 (stereo not shown) [Example 85, 5-((8-((1H-pyrazol-4-yl)amino)imidazo[1,2-a]pyridin-3-yl)ethynyl)-N-(3-(2-cyanopropan-2-yl)-5-((3-(dimethylamino)pyrrolidin-1-yl)methyl)phenyl)-2-fluoro-4-methylbenzamide]
GI50 (T315I-KOPM28 cells): > 100 nM
GI50 (TCCS cells): < 10 nM
GI50 (T315I-TCCS cells): 100 nM
GI50 (KOPM28 cells): < 10 nM
GI50 (Parental (Ba/F3)): 500 to 5000 nM
